The numbers were not newly measured in article PMC9851200, “Multiparameter phenotypic screening for endogenous TFEB and TFE3 translocation identifies novel chemical series modulating lysosome function” (Autophagy, 2022), which cites them from elsewhere.

Design in all cases: method as in original PKIS2 published data
Series [1] concerns the target kinases (KINOMEscan panel) (Homo sapiens, UniProt P04626). The settings on record: kinase ERBB2; Published KINOMEscan; ref original PKIS2 published data; cited from earlier work.
Series [2] addresses kinases (KINOMEscan panel) (Homo sapiens, UniProt Q9H3Y6). Conditions: Published KINOMEscan; ref original PKIS2 published data; cited from earlier work.
Series [3] deals with T1, kinases (KINOMEscan panel) (Homo sapiens, UniProt Q16832).
T1 sequence (Q16832 22-855): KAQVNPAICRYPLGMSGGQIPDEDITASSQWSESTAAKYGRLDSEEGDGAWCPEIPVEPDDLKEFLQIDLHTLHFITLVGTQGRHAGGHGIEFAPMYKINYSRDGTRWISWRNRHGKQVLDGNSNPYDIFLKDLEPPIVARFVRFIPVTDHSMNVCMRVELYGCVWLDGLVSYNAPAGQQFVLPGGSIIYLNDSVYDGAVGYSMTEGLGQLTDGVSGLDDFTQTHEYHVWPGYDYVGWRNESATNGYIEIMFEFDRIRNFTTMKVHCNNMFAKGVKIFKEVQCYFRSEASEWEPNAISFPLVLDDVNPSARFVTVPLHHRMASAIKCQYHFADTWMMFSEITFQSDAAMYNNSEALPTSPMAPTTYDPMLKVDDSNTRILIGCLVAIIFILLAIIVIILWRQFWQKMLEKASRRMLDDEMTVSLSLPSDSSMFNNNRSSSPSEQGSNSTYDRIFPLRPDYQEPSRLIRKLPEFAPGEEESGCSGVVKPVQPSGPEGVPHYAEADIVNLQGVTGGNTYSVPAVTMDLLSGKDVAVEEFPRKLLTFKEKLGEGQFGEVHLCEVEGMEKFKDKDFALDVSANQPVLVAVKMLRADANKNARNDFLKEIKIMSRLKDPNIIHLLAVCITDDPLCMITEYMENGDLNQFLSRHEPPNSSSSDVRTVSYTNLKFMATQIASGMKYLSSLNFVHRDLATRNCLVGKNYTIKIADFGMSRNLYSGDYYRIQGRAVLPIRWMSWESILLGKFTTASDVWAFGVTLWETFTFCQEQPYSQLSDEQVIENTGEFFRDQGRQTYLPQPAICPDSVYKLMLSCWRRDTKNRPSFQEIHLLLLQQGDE
The settings on record: DDR2; Published KINOMEscan; ref original PKIS2 published data; cited from earlier work.

In series [4] the target is kinases (KINOMEscan panel) (Homo sapiens, UniProt P15056). Conditions: BRAF; Published KINOMEscan; ref original PKIS2 published data; cited from earlier work.
The target of series [5] is T2, kinases (KINOMEscan panel) (Homo sapiens, UniProt Q9NRH2).
T2 sequence (Q9NRH2 1-765): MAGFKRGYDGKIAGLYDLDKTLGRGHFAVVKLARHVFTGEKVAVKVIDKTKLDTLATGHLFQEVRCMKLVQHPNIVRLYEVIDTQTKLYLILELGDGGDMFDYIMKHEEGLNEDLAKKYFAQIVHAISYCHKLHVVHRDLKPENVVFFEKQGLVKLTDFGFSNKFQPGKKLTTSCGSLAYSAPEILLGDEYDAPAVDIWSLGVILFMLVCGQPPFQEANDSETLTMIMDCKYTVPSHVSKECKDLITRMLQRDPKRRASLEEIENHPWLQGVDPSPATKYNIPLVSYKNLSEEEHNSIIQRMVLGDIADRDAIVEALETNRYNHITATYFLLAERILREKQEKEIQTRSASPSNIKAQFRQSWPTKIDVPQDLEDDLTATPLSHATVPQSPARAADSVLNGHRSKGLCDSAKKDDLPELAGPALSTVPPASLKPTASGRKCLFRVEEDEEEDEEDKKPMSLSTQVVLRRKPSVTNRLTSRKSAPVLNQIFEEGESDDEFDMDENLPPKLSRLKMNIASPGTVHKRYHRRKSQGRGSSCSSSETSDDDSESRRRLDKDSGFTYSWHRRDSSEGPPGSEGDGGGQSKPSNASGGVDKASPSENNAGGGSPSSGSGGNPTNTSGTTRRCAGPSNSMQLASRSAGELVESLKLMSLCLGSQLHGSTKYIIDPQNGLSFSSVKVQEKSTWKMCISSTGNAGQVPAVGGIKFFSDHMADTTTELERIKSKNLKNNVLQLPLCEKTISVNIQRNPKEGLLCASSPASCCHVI
Conditions: kinase SNRK; Published KINOMEscan; ref original PKIS2 published data; cited from earlier work.

For series [6], the target named is kinases (KINOMEscan panel) (Homo sapiens, UniProt O96017). Conditions: kinase CHEK2; Published KINOMEscan; ref original PKIS2 published data; cited from earlier work.
The target in series [7] is kinases (KINOMEscan panel) (Homo sapiens, UniProt Q9H4A3). The settings on record: Published KINOMEscan; ref original PKIS2 published data; cited from earlier work.
The target of series [8] is T3, kinases (KINOMEscan panel) (Homo sapiens, UniProt Q8WTQ7).
T3 sequence (Q8WTQ7 1-553): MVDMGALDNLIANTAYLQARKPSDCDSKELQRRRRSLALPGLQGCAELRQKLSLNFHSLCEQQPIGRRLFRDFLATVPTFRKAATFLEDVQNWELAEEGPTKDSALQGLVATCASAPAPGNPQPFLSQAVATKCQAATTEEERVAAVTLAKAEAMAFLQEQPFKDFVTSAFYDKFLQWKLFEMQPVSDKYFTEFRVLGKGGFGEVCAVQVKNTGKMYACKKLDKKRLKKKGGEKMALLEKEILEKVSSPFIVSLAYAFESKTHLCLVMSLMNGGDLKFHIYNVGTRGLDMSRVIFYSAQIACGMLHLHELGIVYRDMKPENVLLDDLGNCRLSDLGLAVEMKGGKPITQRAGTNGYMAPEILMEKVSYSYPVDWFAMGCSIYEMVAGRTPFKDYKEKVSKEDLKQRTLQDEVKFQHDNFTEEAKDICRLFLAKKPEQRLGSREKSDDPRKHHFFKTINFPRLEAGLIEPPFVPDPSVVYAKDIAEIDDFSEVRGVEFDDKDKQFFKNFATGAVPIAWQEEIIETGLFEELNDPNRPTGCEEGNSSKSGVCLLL
The settings on record: kinase GRK7; Published KINOMEscan; ref original PKIS2 published data; cited from earlier work.

Sequence of kinases (KINOMEscan panel) (Homo sapiens, UniProt P04626) (P04626 23-1255): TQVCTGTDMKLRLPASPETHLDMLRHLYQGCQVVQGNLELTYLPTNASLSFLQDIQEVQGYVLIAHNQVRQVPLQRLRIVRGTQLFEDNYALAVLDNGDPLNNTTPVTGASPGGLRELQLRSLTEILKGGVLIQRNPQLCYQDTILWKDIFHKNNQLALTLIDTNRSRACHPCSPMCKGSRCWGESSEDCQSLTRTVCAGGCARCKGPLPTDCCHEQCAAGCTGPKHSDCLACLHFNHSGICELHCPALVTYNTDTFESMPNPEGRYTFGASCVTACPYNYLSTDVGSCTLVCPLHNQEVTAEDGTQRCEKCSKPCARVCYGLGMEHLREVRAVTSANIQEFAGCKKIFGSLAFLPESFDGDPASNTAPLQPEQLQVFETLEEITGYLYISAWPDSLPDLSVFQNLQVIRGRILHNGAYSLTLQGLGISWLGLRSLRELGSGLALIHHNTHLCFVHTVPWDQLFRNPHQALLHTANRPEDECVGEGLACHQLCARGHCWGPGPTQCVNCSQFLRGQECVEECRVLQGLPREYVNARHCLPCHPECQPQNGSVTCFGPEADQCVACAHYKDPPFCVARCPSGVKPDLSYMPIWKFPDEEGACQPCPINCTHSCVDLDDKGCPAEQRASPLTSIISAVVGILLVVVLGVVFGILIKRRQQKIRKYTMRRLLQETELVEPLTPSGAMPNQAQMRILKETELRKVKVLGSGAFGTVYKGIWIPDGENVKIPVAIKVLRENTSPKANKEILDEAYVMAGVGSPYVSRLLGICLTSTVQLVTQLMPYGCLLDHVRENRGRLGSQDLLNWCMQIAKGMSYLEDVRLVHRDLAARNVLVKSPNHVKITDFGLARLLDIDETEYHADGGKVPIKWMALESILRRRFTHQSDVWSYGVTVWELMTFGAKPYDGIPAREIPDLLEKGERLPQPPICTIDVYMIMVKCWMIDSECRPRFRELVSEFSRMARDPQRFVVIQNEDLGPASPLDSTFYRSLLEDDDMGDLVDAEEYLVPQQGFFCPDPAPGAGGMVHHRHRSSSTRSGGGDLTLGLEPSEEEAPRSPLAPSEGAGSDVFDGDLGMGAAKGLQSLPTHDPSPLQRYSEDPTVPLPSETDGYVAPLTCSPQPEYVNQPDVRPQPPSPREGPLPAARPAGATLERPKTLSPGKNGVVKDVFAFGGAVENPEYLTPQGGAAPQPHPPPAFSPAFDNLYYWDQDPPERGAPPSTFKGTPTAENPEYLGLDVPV
Sequence of kinases (KINOMEscan panel) (Homo sapiens, UniProt P15056) (P15056 whole entry): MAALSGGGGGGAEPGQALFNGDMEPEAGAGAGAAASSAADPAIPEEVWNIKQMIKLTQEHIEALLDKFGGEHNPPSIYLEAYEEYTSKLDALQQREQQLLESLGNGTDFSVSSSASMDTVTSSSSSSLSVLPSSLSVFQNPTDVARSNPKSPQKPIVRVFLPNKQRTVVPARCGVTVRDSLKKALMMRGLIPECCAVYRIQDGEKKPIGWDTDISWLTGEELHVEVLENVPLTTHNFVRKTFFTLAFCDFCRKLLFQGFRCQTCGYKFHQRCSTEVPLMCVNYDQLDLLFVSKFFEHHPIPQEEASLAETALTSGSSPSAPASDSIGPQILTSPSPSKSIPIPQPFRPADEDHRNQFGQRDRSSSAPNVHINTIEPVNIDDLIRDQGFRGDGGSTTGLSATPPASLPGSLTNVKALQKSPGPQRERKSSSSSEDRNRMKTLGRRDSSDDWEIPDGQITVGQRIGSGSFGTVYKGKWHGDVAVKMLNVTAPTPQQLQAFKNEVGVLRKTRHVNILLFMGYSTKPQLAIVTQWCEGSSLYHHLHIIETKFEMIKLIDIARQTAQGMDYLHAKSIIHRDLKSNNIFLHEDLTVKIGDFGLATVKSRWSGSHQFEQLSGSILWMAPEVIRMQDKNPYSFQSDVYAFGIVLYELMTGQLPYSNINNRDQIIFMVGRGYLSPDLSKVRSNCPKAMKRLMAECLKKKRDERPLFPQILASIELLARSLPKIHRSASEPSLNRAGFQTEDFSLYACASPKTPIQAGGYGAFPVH
Sequence of kinases (KINOMEscan panel) (Homo sapiens, UniProt Q9H4A3) (Q9H4A3 whole entry): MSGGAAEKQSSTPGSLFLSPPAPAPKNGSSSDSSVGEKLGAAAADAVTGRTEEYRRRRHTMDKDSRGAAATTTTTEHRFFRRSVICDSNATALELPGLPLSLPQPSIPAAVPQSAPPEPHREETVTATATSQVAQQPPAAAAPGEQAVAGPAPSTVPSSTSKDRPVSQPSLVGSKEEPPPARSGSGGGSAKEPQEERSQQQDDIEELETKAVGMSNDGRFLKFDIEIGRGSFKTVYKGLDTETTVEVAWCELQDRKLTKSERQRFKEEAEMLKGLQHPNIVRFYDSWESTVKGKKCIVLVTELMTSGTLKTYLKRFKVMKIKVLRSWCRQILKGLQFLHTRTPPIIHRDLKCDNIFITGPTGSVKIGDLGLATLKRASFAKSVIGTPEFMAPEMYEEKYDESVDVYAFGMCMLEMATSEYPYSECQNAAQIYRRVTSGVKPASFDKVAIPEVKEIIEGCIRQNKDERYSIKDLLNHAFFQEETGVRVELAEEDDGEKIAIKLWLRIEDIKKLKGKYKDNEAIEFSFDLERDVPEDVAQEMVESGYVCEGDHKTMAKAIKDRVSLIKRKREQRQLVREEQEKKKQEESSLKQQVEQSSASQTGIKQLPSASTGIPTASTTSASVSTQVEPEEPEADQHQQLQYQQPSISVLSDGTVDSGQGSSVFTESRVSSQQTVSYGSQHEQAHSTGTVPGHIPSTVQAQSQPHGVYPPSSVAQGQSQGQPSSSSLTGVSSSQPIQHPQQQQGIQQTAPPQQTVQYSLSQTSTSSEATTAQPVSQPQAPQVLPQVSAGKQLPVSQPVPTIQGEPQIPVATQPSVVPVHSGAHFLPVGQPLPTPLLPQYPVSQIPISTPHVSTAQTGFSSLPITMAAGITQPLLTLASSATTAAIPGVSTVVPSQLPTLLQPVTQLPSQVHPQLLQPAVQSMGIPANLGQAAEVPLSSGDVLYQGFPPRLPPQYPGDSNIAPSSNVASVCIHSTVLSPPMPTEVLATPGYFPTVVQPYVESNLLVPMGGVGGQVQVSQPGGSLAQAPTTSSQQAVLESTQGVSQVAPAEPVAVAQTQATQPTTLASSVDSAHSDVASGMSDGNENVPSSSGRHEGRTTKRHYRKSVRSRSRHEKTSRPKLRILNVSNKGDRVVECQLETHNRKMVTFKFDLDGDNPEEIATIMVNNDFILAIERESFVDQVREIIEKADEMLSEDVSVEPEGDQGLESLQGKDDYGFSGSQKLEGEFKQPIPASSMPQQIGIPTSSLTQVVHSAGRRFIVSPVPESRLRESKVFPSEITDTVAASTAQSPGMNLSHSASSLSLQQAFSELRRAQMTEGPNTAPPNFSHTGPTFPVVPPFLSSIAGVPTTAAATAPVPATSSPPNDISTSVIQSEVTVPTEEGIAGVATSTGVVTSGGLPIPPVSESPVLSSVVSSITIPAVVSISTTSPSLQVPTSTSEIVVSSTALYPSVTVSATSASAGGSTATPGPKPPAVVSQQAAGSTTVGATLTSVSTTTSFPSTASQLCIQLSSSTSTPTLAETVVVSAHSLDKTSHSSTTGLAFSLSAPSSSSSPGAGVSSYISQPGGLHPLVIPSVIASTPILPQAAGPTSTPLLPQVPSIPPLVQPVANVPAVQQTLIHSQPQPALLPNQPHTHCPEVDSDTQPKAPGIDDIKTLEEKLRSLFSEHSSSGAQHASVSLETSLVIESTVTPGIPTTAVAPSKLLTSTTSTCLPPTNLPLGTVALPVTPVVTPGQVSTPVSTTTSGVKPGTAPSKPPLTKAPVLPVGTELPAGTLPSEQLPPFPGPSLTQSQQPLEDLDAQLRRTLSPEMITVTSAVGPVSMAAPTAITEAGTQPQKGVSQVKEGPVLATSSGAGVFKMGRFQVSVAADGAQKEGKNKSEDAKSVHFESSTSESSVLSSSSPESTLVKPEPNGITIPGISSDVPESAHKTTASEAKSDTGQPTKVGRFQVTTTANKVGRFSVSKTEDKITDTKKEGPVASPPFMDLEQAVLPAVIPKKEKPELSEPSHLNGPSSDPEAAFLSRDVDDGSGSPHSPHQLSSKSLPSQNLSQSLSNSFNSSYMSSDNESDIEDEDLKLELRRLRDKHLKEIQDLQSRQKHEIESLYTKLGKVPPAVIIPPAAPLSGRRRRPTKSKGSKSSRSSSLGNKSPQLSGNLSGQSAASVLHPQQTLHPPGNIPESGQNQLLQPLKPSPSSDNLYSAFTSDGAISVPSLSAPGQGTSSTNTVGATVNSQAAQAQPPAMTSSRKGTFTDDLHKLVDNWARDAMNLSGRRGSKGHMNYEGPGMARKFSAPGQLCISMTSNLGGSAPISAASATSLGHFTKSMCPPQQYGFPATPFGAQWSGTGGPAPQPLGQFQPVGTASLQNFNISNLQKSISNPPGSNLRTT
Sequence of kinases (KINOMEscan panel) (Homo sapiens, UniProt Q9H3Y6) (Q9H3Y6 whole entry): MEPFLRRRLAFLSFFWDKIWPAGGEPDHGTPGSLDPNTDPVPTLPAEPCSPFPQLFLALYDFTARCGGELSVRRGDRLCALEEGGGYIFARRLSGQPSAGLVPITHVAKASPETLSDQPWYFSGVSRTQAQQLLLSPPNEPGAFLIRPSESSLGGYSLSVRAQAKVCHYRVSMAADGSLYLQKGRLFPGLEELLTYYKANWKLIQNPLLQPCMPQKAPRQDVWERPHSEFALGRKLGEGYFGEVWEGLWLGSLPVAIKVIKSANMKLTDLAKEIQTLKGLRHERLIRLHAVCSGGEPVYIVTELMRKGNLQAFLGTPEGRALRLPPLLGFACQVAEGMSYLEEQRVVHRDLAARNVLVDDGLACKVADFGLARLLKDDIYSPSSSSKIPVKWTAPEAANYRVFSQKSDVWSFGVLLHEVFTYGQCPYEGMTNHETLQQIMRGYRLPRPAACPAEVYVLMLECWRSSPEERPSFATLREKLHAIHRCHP

As for `Cc1cccc(-c2nc(Nc3ccncc3)c3ccccc3n2)n1` [NK215], in series [1], the “KINOMEscan ERBB2” value is listed as 7. The “KINOMEscan SRMS” value in series [2] is reported as 0. The “KINOMEscan DDR2” value in series [3] was 45. Besides, the “KINOMEscan BRAF” value in series [4] is listed as 0. In series [5], the “KINOMEscan SNRK” value was 0. The “KINOMEscan CHEK2” value in series [6] is recorded as 0. Further, the “KINOMEscan WNK1” value in series [7] is 0. Besides, the “KINOMEscan GRK7” value in series [8] is 0.
